The values that follow come from article PMC2579677 (British Journal of Cancer, 2008).

A word on the clearance: it is the volume of plasma or blood freed of the substance per unit of time. As usually defined, the MRT is the average time that molecules of a dose stay in the body. By Vd is commonly meant a proportionality between amount in the body and measured concentration, not a real space. One may read the Cmax as the peak of the concentration-time curve.

For data set [1] the following is noted: cited from earlier work.
The subject of data set [2] is MDA-MB-231 xenograft tumours. Nature of the data set: MDA-MB-231 xenograft tumour growth inhibition. Particulars: 21 days.
For data set [3], the system named is bFGF-stimulated angiogenesis in Matrigel plugs. Further details: method as in Chander et al, 2007. To be noted: ref Chander et al, 2007, cited from earlier work.
Data set [4] relates to range of cell lines. Particulars: 2003, 2005, cited from earlier work; for difference in antiproliferative activity relative to 2-MeOE2: some investigations, ref Day et al, Wood et al, 2004, Leese et al.
Details of data set [5]: method as in Foster et al, 2008. Particulars: single oral administration; ref Foster et al, 2008; cited from earlier work.
Data set [6] relates to MCF-7dox40 xenograft tumours. Further details: method as in Newman et al, 2008. Particulars: ref Newman et al, 2008; cited from earlier work.
Data set [7] concerns bFGF-stimulated angiogenesis in Matrigel plugs. The experiment in a line: In vivo angiogenesis assay (bFGF-supplemented Matrigel plug, FITC-dextran). The arrangement: species or system C57BL/6J mice. Particulars: for reduction of level of angiogenesis: 10 mg kg^−1 orally daily for four days, compared with bFGF-only. The procedure: The antiangiogenic potential of STX243 was assessed using a modified Matrigel plug assay as described earlier ([Passaniti et al, 1992]; [Prewett et al, 1999]; [Chander et al, 2007]). The female C57BL/6J mice used in this study were obtained from Harlan (Bicester). The mice were anaesthetised, placed on a heated pad (37°C) and 0.5 ml of ice-cold Matrigel supplemented with 500 ng of basic fibroblast growth factor (bFGF) was injected subcutaneously into the flanks of each mouse. Control mice received Matrigel without bFGF. The mice were subsequently weighed before returning the mice to their isolator. After 24 h of Matrigel injection, the mice were placed into the following treatment groups: control, bFGF-only, bFGF plus STX140 (10 mg kg^−1, orally) and bFGF plus STX243 (10, 20 or 40 mg kg^−1, orally). Control and bFGF-only animals were dosed orally with vehicle (10% THF, 90% PG). The animals were dosed every day for four days with five animals per treatment group. Quantification of the blood vessels within the Matrigel plugs was facilitated through the intravenous injection of 100 μl of 0.25 mg ml^−1 FITC-dextran (250 000 molecular weight) seven days after the Matrigel injection. FITC-dextran injection allows for visualisation of the blood vessels that has been recently formed in the matrigel plugs. The animals were killed 20 min after the injection of the FITC-dextran. The mice were subsequently weighed and the Matrigel plugs were removed. The Matrigel plugs were photographed and subsequently dissolved in 1 ml Dispase reagent for 16 h at 37°C. The resulting mixture was centrifuged at 15 700 g (20°C) for 30 s. The fluorescence of the supernatant was measured using a FLUOstar OPTIMA fluorimeter (BMG Labtech Ltd., Aylesbury, Bucks, UK). The excitation and emission wavelengths used were 480 and 520 nm, respectively. The fluorescence of the samples was quantitated using a standard curve of FITC-dextran (0.4–25 μg ml^−1).

Data set [8] relates to human umbilical vein endothelial cell (HUVEC). The arrangement: method as in Newman et al, 2004. To be noted: ref Newman et al, 2004; cited from earlier work.
Data set [9] is described as follows: Pharmacokinetics of STX243 in plasma (HPLC). The data set is classed as in vivo, female Wistar rats. Particulars: for clearance / MRT / Vd / half-life / Cmax: female, Wistar; for clearance / MRT / Vd / half-life: rat, plasma; for clearance: read-out: Cl (total body clearance) (converted); for MRT: read-out: MRT (mean residence time); for Vd: read-out: VD (volume of distribution); for half-life: read-out: t1/2β (elimination half-life) (converted).

In data set [10] the test system is MCF-7dox40 xenograft tumours. Nature of the data set: Paclitaxel-resistant MCF-7dox40 xenograft tumour growth inhibition. The data set is classed as in vivo, MF-1 nu/nu mice. Particulars: 28 days.
Data set [11] has as its system MCF-7wt xenograft tumours. The experiment in a line: MCF-7wt xenograft tumour growth inhibition. The data set is classed as in vivo, MF-1 nu/nu mice. To be noted: 28 days, compared with vehicle-only.
For data set [12], the system named is HUVECs. Nature of the data set: In vitro angiogenesis kit: VEGF-stimulated vessel formation in HUVEC/fibroblast coculture. To be noted: VEGF 2 ng ml^−1 stimulated, day 11. The data set is classed as cell-based, human. The procedure: The effects of the compounds on in vitro vessel formation were assessed using an angiogenesis kit (TCS Cellworks, Claydon, UK). For this assay, HUVECs (obtained from TCS Cellworks) were cultured in a 24-well plate within a matrix of human diploid fibroblasts of dermal origin in an optimised medium (TCS Cellworks) supplemented with 2 ng ml^−1 vascular endothelial growth factor (VEGF). The cocultured cells were incubated throughout the experiment at 37°C under 5% CO2 in a humidified incubator. On day 1, the culture medium was removed and replaced with medium containing the compounds under investigation. The vehicle used for the dilution of compound was tetrahydrofuran (THF). The final concentration of THF in the medium was 0.001 (100 nM dose) to 0.00025% (25 nM dose). On days 4, 7 and 9, the medium was replaced with fresh medium containing the compounds. Each compound was tested in triplicate. On day 11, the cells were washed (phosphate-buffered saline) and 70% ethanol (1 ml) was added to each well for 30 min to fix the cells. After fixation, the cells were washed with blocking buffer (1 ml, phosphate-buffered saline+1% bovine serum albumin) and stained for CD31 according to the manufacturer's instructions (TCS Cellworks).
The extent of vessel formation was then quantified using a variation of an earlier described technique ([Newman et al, 2004]). Briefly, using a high-resolution transmissive scanner (ScanMaker 9800, Microtek, Willich, Germany), each well was scanned and saved as a tagged image format (TIF) file in Photoshop (Adobe, San Jose, CA, USA). The image was then converted to a black and white image using the photocopy filter in Photoshop ( × 2, 10 detail and 25 darkness) and saved as an uncompressed TIF file. The files were transferred to the AngioSys software (TCS Cellworks), all background and non-tubule-like structures were removed using erode ( × 1) and clean (100 pixels) functions, and the number of pixels representing vessels was counted. This technique was validated (data not shown) against the quantification techniques as described earlier ([Newman et al, 2004]).

Setting [13] is: 40 mg kg^−1 orally daily, compared with vehicle-only.

SMILES strings stand for the structures. Values joined by “and” are separate entries in the source; they are usually repeats but may differ in a detail not shown here. Equal entries are not always repeated. Where two headings read alike, the source gives them in different places.

On to `COc1cc2c(cc1O)CC[C@@H]1[C@@H]2CC[C@]2(C)[C@@H](O)CC[C@@H]12` [2-MeOE2, 2-methoxyoestradiol, reference compound], for which, in [1] (10 mg kg^−1 intravenous, HPLC, ref Ireson et al, 2004), the “plasma concentration 1 h after intravenous dosing” value is on record as “below the LOD”. In addition, the tumour growth inhibition entry in data set [2] (setting [13]) and in [2] (75 mg kg^−1 orally daily) was “No significant tumour inhibition” each time. Further, the “angiogenesis inhibition in Matrigel plugs” value was “no significant inhibition” in [3] (10 mg kg^−1 dose) and “Angiogenesis inhibition was only observed” in data set [3] (50 mg kg^−1 orally).
As to `COc1cc2c(cc1OS(N)(=O)=O)CCC1C2CC[C@@]2(C)C1CC[C@@H]2OS(N)(=O)=O` (stereo partly drawn) [STX140, 2-MeOE2-3,17-O,O-bis-sulphamate], the “difference in antiproliferative activity relative to 2-MeOE2” value in data set [4] is 10 fold. Also, the maximum-tolerated dose in data set [5] is 150 mg/kg. Also, the “maximum concentration in plasma” value in data set [1] (rat, in vivo, iv) was 6.6 µg/mL. Also, the oral bioavailability in [1] (rat, in vivo, po, 10 mg/kg) was 85%. Also, in data set [1] (rat, in vivo, po), the “maximum concentration in plasma” value was 3.9 µg/mL and the “time of peak plasma concentration” value was 3 h. The “inhibition of growth of MCF-7dox40 tumours” value in [6] is “capable of inhibiting the growth of MCF-7dox40 tumours”. In addition, in data set [2] (20 mg kg^−1 orally daily, compared with vehicle-only), the tumour growth inhibition is 63% and 63±7%. Further, the “reduction of level of angiogenesis” value in data set [7] is 72% and 72±5%. In addition, the “effectiveness at inhibiting HUVEC proliferation relative to 2-MeOE2” value in [8] is 60 fold.
As for `CCc1cc2c(cc1OS(N)(=O)=O)CCC1C2CC[C@@]2(C)C1CC[C@@H]2OS(N)(=O)=O` (stereo partly drawn) [STX243, 2-ethyloestradiol-3,17-O,O-bis-sulphamate], the “potency at inhibiting cell proliferation relative to STX140” value in data set [4] (range of cell lines, ref Suzuki et al, Raobaikady et al) is listed as “equipotent to STX140”. The “difference in antiproliferative activity relative to 2-MeOE2” value in data set [4] is 10 fold. Moreover, the maximum-tolerated dose in data set [5] is 300 mg/kg. The AUC is 42 hμg ml^−1 in data set [9] (Intravenous 10 mg kg^−1), 126 hμg ml^−1 in data set [9] (Intravenous 40 mg kg^−1), 13 hμg ml^−1 in data set [9] (Oral 10 mg kg^−1) and 23 hμg ml^−1 in [9] (Oral 40 mg kg^−1). Moreover, the AUMC turned out to be 267 h^2μg ml^−1 in [9] (Intravenous 10 mg kg^−1), 558 h^2μg ml^−1 in [9] (Intravenous 40 mg kg^−1), 219 h^2μg ml^−1 in data set [9] (Oral 10 mg kg^−1) and 157 h^2μg ml^−1 in data set [9] (Oral 40 mg kg^−1). The “Bioavailability (% F)” value is 31 % F and 30.7 % F in data set [9] (Oral 10 mg kg^−1); 18 % F in data set [9] (Oral 40 mg kg^−1). Further, the entries for the “time of highest plasma concentration” value in data set [9] (Oral 10 mg kg^−1) and in [9] (Oral 40 mg kg^−1) were 4 h and 8 h, respectively. Besides, the values for the clearance in [9] (Intravenous 10 mg kg^−1) and in data set [9] (Intravenous 40 mg kg^−1) were 3.92 mL/min/kg and 5.3 mL/min/kg, respectively. In addition, the MRT in [9] (Intravenous 10 mg kg^−1) worked out at 6.28 h; in data set [9] (Intravenous 40 mg kg^−1) it was 4.44 h; in [9] (Oral 10 mg kg^−1), 16.8 h; in data set [9] (Oral 40 mg kg^−1), 6.93 h. In addition, the Vd was determined as 1.48 L/kg in data set [9] (Intravenous 10 mg kg^−1) and 1.41 L/kg in data set [9] (Intravenous 40 mg kg^−1). Besides, the half-life was 4.78 h in data set [9] (Intravenous 10 mg kg^−1), 3.18 h in data set [9] (Intravenous 40 mg kg^−1), 11.4 h in [9] (Oral 10 mg kg^−1) and 1.88 h in [9] (Oral 40 mg kg^−1). In addition, the Cmax in data set [9] (Intravenous 10 mg kg^−1, rat plasma) is 13100 ng/mL; in data set [9] (Intravenous 40 mg kg^−1, rat plasma), 44800 ng/mL; in data set [9] (Oral 10 mg kg^−1, rat plasma) it was 640 ng/mL; in data set [9] (Oral 40 mg kg^−1, rat plasma), 1760 ng/mL. For the same molecule, in [9] (intravenous or oral, 10 or 40 mg kg^−1, HPLC), the “metabolism (to putative metabolite STX1813) in plasma” value was “no significant metabolism”. Moreover, the tumour growth inhibition in data set [10] (setting [13]) was 74±4%; in data set [2] (setting [13]), 72% and 72±13%; in data set [11] (40 mg kg^−1 orally daily) it was 87±5%. Also, the “reduction of level of angiogenesis” value in [7] was 50% and 50±6%. For the same molecule, the “growth of new blood vessels in Matrigel plugs” value in data set [7] (all doses investigated (10, 20 or 40 mg kg^−1 orally), P<0.001 vs bFGF-only) is listed as “significantly inhibited”. In addition, the vessel formation result in data set [12] (25 nM) is “only a small inhibition”; in data set [12] (50 nM) it was “significant inhibition of vessel formation”. Also, in data set [12] (100 nM), the “vessel (tubule) formation” value is “completely blocked all tubule formation”.
In the case of `CC(=O)O[C@H]1C(=O)[C@@]2(C)[C@H]([C@H](OC(=O)c3ccccc3)[C@]3(O)C[C@H](OC(=O)[C@H](O)[C@@H](NC(=O)c4ccccc4)c4ccccc4)C(C)=C1C3(C)C)[C@]1(OC(C)=O)CO[C@@H]1C[C@@H]2O` [paclitaxel, reference compound], the results for the tumour growth inhibition result in data set [10] (15 mg kg^−1 intravenous weekly) and in data set [11] (15 mg kg^−1 intravenous weekly) were “only STX243 was capable of significantly inhibiting the growth” and 87±6%, respectively.
